The results in this text go back to patent publication US20230339900A1, “CASEIN KINASE 1 DELTA MODULATORS” (Janssen Pharmaceutica NV, priority 2020, published 2023).

Assay [1] deals with human recombinant GST cleaved CSNK1D (Homo sapiens (Human), UniProt P48730). Kind of assay: Purified enzyme assay (ADP-Glo Kinase Assay). The assay is classed as biochemical. To be noted: 2 nM CSNK1D, peptide substrate 150 μM, ATP 20 μM, 45 minutes room temperature. (In general: ADP-Glo first removes unused ATP, then detects ADP through luciferase.)
In assay [2] the target is human CSNK1D tagged with nanoluciferase (Homo sapiens (Human), UniProt P48730). Kind of assay: Whole Cell nBRET CSNK1D Binding Assay. To be noted: living CHO cells stably expressing human CSNK1D-nanoluciferase; NanoBret tracer 130 nM; 2 hours 37° C.; read-out: CSNK1D BRET IC50. A digest of the protocol:
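IC50 values come from milliBRET ratios ((E630/E450)*1000) fitted against log compound concentration. Tracer displacement was run in living CHO cells stably expressing NanoLuc-fused CSNK1D, with dosed compounds and 130 nM tracer incubated 2 h at 37 °C in serum-free OptiMEM before substrate addition and donor/acceptor reading.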
A general note: BRET reads energy transfer from a luciferase to a nearby fluorophore.

Sequence of human recombinant GST cleaved CSNK1D (P48730 whole entry): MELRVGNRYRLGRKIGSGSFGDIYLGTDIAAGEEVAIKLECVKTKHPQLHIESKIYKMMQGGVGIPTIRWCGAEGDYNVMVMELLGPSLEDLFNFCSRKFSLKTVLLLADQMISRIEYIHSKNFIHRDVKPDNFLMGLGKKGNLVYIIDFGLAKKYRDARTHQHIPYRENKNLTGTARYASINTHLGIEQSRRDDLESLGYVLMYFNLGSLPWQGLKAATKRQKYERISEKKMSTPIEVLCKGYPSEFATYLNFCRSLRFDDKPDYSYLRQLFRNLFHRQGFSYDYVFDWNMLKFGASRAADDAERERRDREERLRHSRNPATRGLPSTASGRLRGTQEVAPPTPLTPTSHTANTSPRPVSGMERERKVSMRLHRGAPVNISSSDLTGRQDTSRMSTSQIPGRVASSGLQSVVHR
Sequence of human CSNK1D tagged with nanoluciferase (P48730 whole entry, the tested form may be a part): as the sequence (P48730 whole entry) above

Broadly, the AC50 is the concentration at which the activity in the assay is half-maximal. A word on the IC50: it is the point on the concentration scale where inhibition reaches its midpoint. As to `Cn1cc(-c2ccnc3c2CC(=O)N3)c(-c2ccc(F)cn2)n1` [Example 3, 4-(3-(5-Fluoropyridin-2-yl)-1-methyl-1H-pyrazol-4-yl)-1,3-dihydro-2H-pyrrolo[2,3-b]pyridin-2-one], the AC50 in assay [1] was 58 nM. In addition, in assay [2], the IC50 was 1500 nM.
In the case of `Cc1cnc2[nH]ccc2c1-c1cn(C)nc1-c1ccc(F)cn1` [Example 79, 4-[3-(5-Fluoro-2-pyridyl)-1-methyl-pyrazol-4-yl]-5-methyl-1H-pyrrolo[2,3-b]pyridine], the half-maximal activity concentration (AC50) in assay [1] was 7 nM. Further, the IC50 in assay [2] was found to be 52 nM.
In the same order, the values of `COc1ccc2nccc(-c3cn(C)nc3-c3ccc(F)cn3)c2c1` [Example 129, 4-[3-(5-Fluoro-2-pyridyl)-1-methyl-pyrazol-4-yl]-6-methoxy-quinoline] are 109 nM and 785 nM.
With `Cn1cc(-c2ccnc3[nH]ccc23)c(-c2cncnc2)n1` [Example 45, 4-(1-Methyl-3-pyrimidin-5-yl-pyrazol-4-yl)-1H-pyrrolo[2,3-b]pyridine], in assay [1], the concentration at half-maximal activity (AC50) worked out at 746 nM. Moreover, the IC50 in assay [2] is greater than 10000 nM.
In the same order, the values of `Cn1cc(-c2ccnc3[nH]ccc23)c(-c2cccnc2)n1` [Example 53, 4-[1-Methyl-3-(3-pyridyl)pyrazol-4-yl]-1H-pyrrolo[2,3-b]pyridine] are 68 nM and 359 nM.
`Cn1cc(-c2ccnc3cc(C#N)ccc23)c(-c2ccc(F)cn2)n1` [Example 149, 4-[3-(5-Fluoro-2-pyridyl)-1-methyl-pyrazol-4-yl]quinoline-7-carbonitrile]: the AC50 in assay [1] was found to be 124 nM. The IC50 in assay [2] is greater than 10000 nM.
In the same order, the values of `Cn1cc(-c2ccnc3ccsc23)c(-c2ccc(F)cn2)n1` [Example 118, 7-(3-(5-Fluoropyridin-2-yl)-1-methyl-1H-pyrazol-4-yl)thieno[3,2-b]pyridine] are 24 nM and 376 nM.
For `Fc1ccc(-c2nn(C3CCOC3)cc2-c2ccnc3[nH]ccc23)nc1` (racemic) [Example 74, (R/S)-4-[3-(5-Fluoro-2-pyridyl)-1-tetrahydrofuran-3-yl-pyrazol-4-yl]-1H-pyrrolo[2,3-b]pyridine] the same measures were 36 nM and 218 nM.
`Cn1cc(-c2ccnc3[nH]cc(C(F)(F)F)c23)c(-c2ccc(F)cn2)n1` [Example 86, 4-(3-(5-Fluoropyridin-2-yl)-1-methyl-1H-pyrazol-4-yl)-3-(trifluoromethyl)-1H-pyrrolo[2,3-b]pyridine]: the AC50 in assay [1] was 48 nM. In addition, in assay [2], the IC50 worked out at 1060 nM.
Consider `Cn1cc(-c2ccnc3cnccc23)c(-c2ccc(F)cn2)n1` [Example 112, 4-[3-(5-Fluoro-2-pyridyl)-1-methyl-pyrazol-4-yl]-1,7-naphthyridine], for which the AC50 in assay [1] is 51 nM. Also, the IC50 in assay [2] came to 953 nM.
For `Cc1cc(-c2cn(C)nc2-c2ccncc2C)c2cn[nH]c2n1` [Example 136, 6-Methyl-4-[1-methyl-3-(3-methyl-4-pyridyl)pyrazol-4-yl]-1H-pyrazolo[3,4-b]pyridine] the same measures were 1040 nM and greater than 10000 nM.
For `Cc1cc(-c2cn(C)nc2-c2ccc(F)cn2)c2cc[nH]c2n1` [Example 80, 4-[3-(5-Fluoro-2-pyridyl)-1-methyl-pyrazol-4-yl]-6-methyl-1H-pyrrolo[2,3-b]pyridine] the same measures were 1 nM and 41 nM.
In the case of `CCn1ncc2cc(-c3cn(C)nc3-c3ccc(F)cn3)cnc21` [Example 121, 1-Ethyl-5-[3-(5-fluoro-2-pyridyl)-1-methyl-pyrazol-4-yl]pyrazolo[3,4-b]pyridine], the AC50 in assay [1] is 43 nM. Also, the IC50 in assay [2] turned out to be 1600 nM.
Consider `Cc1cc(-c2cn(C3COC3)nc2-c2ccc(F)cn2)c2cn[nH]c2n1` [Example 73, 4-(3-(5-Fluoropyridin-2-yl)-1-(oxetan-3-yl)-1H-pyrazol-4-yl)-6-methyl-1H-pyrazolo[3,4-b]pyridine], for which the AC50 in assay [1] is 20 nM. The IC50 in assay [2] is 576 nM.
